Reference: patent US20030004148A1, “Regulation of meiosis” (priority 1994, published 2003)

Assays:
[1] = system: denuded oocytes, DO; assay: Oocyte test, denuded oocytes (DO); type: cell-based, mice; details: HX-medium, 24 hours culture
Experimental: (§1) Animals: Immature female mice (B6D2-F1, strain C57B1/2J) were kept under controlled lighting (14 hr light, 10 hr dark) and temperature, with food and water ad libitum. When the animals reached a weight of 13-16 grams (which correspond to the age of 20 to 22 days post partum) they were given a single injection (i.p.) of human menopausal gonadotropin (Humegon, Organon, The Netherlands) containing approximately 20 IU FSH and 20 IU LH (Ziebe, S. et al. Hum. Reprod. 8(1993) 385-88). 48 hours later the animals were killed by cervical dislocation.
(§2) Collection and culture of oocytes: The ovaries were removed, placed in HX-medium (se below) and freed of extraneous tissue. The collection- and culture medium consisted of Eagles minimum essential medium (Flow, USA), containing 4 mM hypoxanthine, 3 mg/ml of bovine serum albumin, 0.23 mM sodium pyruvate, 2 mM glutamine, 100 U/ml of penicillin, and […] of streptomycin (all Sigma, USA). This medium is termed HX-medium. The same medium but without HX was used as control medium.
(§3) The antral follicles of the ovaries were punctured under a dissecting microscope using a 27-gauge needle. Cumulus enclosed oocyte (CEO) of uniform size were selected and rinsed three times in fresh HX-medium.
(§4) Oocytes freed from cumulus cells, i.e. denuded oocytes, DO, were obtained by gentle flushing CEO through a fine-bore mouth-controlled pipet. CEO and DO were cultured in 4-well multidishes (Nunclon, Denmark) containing 0.5 ml of HX-medium except the controls which were cultured in control medium. Each well contained 35 to 50 oocytes.
(§5) The cultures were performed at 37° C. and 100% humidity with 5% CO2 in air. The culture time was 24 hours.
(§6) Examination of oocytes: By the end of the culture period the number of oocytes with germinal vesicle (GV) or germinal vesicle breakdown (GVBD) and those with polar body (PB) was counted in an inverted microscope with differential interference contrast equipment. The percentage of oocytes with GVBD per total number of oocytes and the percentage of oocytes with PB per GVBD was calculated. One unit of MIS activity is defined as: [formula]
(§7) and the number of MIS activity units is calculated as: [formula]

[2] = system: Cumulus enclosed oocyte (CEO); assay: Oocyte test, cumulus enclosed oocytes (CEO); type: cell-based, mice; details: HX-medium, 24 hours culture
Experimental: as §1, §2, §3, §4, §5, §6, §7

[3] = system: oocytes of isolated perfused ovaries; assay: GVB in isolated perfused ovaries from immature rats; parameters: species or system Immature Sprague-Dawley rats; details: for % GVB (oocytes undergoing germinal vesicle breakdown per total oocytes per ovary), mean±sd: perfusion up to 12 h, 7 ovaries
Experimental: Animals and Experimental Procedure: Immature Sprague-Dawley rats (body weight: 50-55 g) were injected s.c. with 20 IU pregnant mare serum gonadotropin (PMSG). 48 hours later, the rats were anesthetized with a combination of Ketavet/Rompun (105 and 8.3 mg/kg BW, respectively). Heparin sulfate (300 IU) was injected into the tail vein.
Ovaries with connecting vasculature were surgically isolated and perfusions were performed in a recirculating system (Koos RD et al. (1984) Biol Reprod 30:1135-1141) containing approximately 35 ml of perfusion medium (Medium 199 with Earle's salts supplemented with 50 μg/ml gentamycin sulfate, 0.2 IU/ml insulin, and 4% BSA).
The ovaries were initially perfused for approximately 1 hour to allow metabolic stabilization of the tissue. Only the ovarian specimens which maintained a flow rate between 0.8 and 1.5 ml/min at pressure of 80 mmHg during the stabilization period were used in the experiments.
After 1 hour of preperfusion, the effect of 4,4-dimethyl-5^α-cholesta-8,14,24-triene-3^β-ol (FF-MAS), IBMX (iso-butyl-methyl-xanthine), LH (luteinizing hormone), and cholesterol were tested by dividing the ovarian specimens into control and experimental groups. Additions to the perfusion medium were made as follows:
Prior to addition to the perfusion medium, FF-MAS and cholesterol were diluted in ethanol, and LH and IBMX were diluted in perfusion medium. For the investigation of meiosis, perfusions were continued up to 12 h after addition of the compounds.
At termination of each perfusion ovaries were dissected free from adherent tissue and oocytes isolated under a stereo microscope by manual rupture of the follicles using a pair of 27 gauge needles. Oocytes per ovary were counted and examined using Nomarski differential interference contrast optics.
Oocytes with a germinal vesicle breakdown (GVB) were regarded as undergoing meiotic maturation (Tsafiri et al. (1980) J. Reprod. Fertil. 60:399-402). The % GVB, defined as percentage of oocytes undergoing GVB per total number of oocytes in each ovary was calculated. Each experimental group consisted of 7 perfused ovaries. Data are presented as mean±sd. Statistical differences were calculated by one-way ANOVA followed by Students's t-test. P-values<0.05 indicated a statistically significant higher % GVB in treated groups compared to the control.

**Q.** Which “DO, units of MIS activity” value ([1]; 0.002 μg/ml) does the source give for CC(C)=CCC[C@@H](C)[C@H]1CC[C@H]2C3=C(CC[C@]12C)[C@@]1(C)CC[C@H](O)C(C)(C)[C@@H]1CC3 [4,4-Dimethyl-zymosterol, 4,4-dimethyl-^5α-cholesta-8,24-diene-^3β-ol] here?
**A.** 0.9 units of MIS activity

**Q.** And the “DO, units of MIS activity” value ([1]; 0.02 μg/ml)?
**A.** 1.5 units of MIS activity

**Q.** And the “DO, units of MIS activity” value ([1]; 0.2 μg/ml)?
**A.** 0.6 units of MIS activity

**Q.** What about the “DO, units of MIS activity” value ([1]; 0.3 μg/ml) of the same molecule?
**A.** 1.8 units of MIS activity

**Q.** And the “DO, units of MIS activity” value ([1]; 1.2 μg/ml)?
**A.** 2.7 units of MIS activity

**Q.** And the “CEO, units of MIS activity” value ([2]; 0.002 μg/ml)?
**A.** 1.0 units of MIS activity

**Q.** And the “CEO, units of MIS activity” value ([2]; 0.02 μg/ml)?
**A.** 1.3 units of MIS activity

**Q.** And the “CEO, units of MIS activity” value ([2]; 0.2 μg/ml)?
**A.** 1.3 units of MIS activity

**Q.** What about the “CEO, units of MIS activity” value ([2]; 0.3 μg/ml) of the same molecule?
**A.** 2.7 units of MIS activity

**Q.** And the “CEO, units of MIS activity” value ([2]; 1.2 μg/ml)?
**A.** 2.9 units of MIS activity

**Q.** With CC(C)=CCC[C@@H](C)[C@H]1CC[C@H]2C3=C(CC[C@]12C)[C@@]1(C)CC[C@H](O)C[C@@H]1CC3 [Zymosterol] as the molecule, how does the “DO, units of MIS activity” value ([1]; 0.01 μg/ml) read?
**A.** 0.6 units of MIS activity

**Q.** And the “DO, units of MIS activity” value ([1]; 0.1 μg/ml)?
**A.** 1.2 units of MIS activity

**Q.** What about the “CEO, units of MIS activity” value ([2]; 0.001 μg/ml) of the same molecule?
**A.** 0.2 units of MIS activity

**Q.** What about the “CEO, units of MIS activity” value ([2]; 0.01 μg/ml) of the same molecule?
**A.** 0.4 units of MIS activity

**Q.** What about the “CEO, units of MIS activity” value ([2]; 0.1 μg/ml) of the same molecule?
**A.** 1.1 units of MIS activity

**Q.** Which “DO, units of MIS activity” value ([1]; 0.03 μg/ml) does the source give for CC(C)CCC[C@@H](C)[C@H]1CC[C@H]2C3=C(CC[C@]12C)[C@@]1(C)CC[C@H](O)C(C)(C)C1CC3 (stereo partly drawn) [4,4-Dimethylcholest-8-ene-^3β-ol] here?
**A.** 0.8 units of MIS activity

**Q.** What about the “CEO, units of MIS activity” value ([2]; 0.03 μg/ml) of the same molecule?
**A.** 12.8 units of MIS activity

**Q.** Which “DO, units of MIS activity” value ([1]; 3.0 μg/ml) does the source give for CC(C)CCC[C@@H](C)[C@H]1CC=C2C3=C(CC[C@@]21C)[C@@]1(C)CC[C@H](O)C(C)(C)C1CC3 (stereo partly drawn) [4,4-Dimethylcholesta-8,14-dien-^3β-ol, 4,4-Dimethylcholesta-8,14-Dien-^3β-ol] here?
**A.** 2.25 units of MIS activity

**Q.** What about the “CEO, units of MIS activity” value ([2]; 3.0 μg/ml) of the same molecule?
**A.** 0 units of MIS activity

**Q.** Which “% GVB (oocytes undergoing germinal vesicle breakdown per total oocytes per ovary), mean±sd” value ([3]; 60 μM with 0.2 mM IBMX) does the source give for CC(C)CCC[C@@H](C)[C@H]1CC[C@H]2[C@@H]3CC=C4C[C@@H](O)CC[C@]4(C)[C@H]3CC[C@]12C [cholesterol, reference compound] here?
**A.** 2.1±1.8%

**Q.** For CC(C)=CCC[C@@H](C)[C@H]1CC[C@H]2C3=C(CC[C@]12C)[C@@]1(C)CC[C@H](O)[C@H](C)[C@@H]1CC3 [^4β-Methylzymosterol, 4^β-Methylzymosterol], which “DO, units of MIS activity” value ([1]; 0.13 μg/ml) is on record?
**A.** 0.8 units of MIS activity

**Q.** What about the “DO, units of MIS activity” value ([1]; 3.9 μg/ml) of the same molecule?
**A.** 6.2 units of MIS activity

**Q.** What about the “CEO, units of MIS activity” value ([2]; 0.13 μg/ml) of the same molecule?
**A.** 2.4 units of MIS activity

**Q.** And the “CEO, units of MIS activity” value ([2]; 3.9 μg/ml)?
**A.** 3.5 units of MIS activity

**Q.** For CC(=O)OC1CC[C@]2(C)C3=C(CCC2C1(C)C)C1=CC[C@H]([C@H](C)CCCC(C)C)[C@@]1(C)CC3 (some centres unmarked), which melting point is on record?
**A.** 120 to 125 °C

**Q.** Which “% GVB (oocytes undergoing germinal vesicle breakdown per total oocytes per ovary), mean±sd” value ([3]; 30 μM with 0.2 mM IBMX) does the source give for CC(C)=CCC[C@@H](C)[C@H]1CC=C2C3=C(CC[C@@]21C)[C@@]1(C)CC[C@H](O)C(C)(C)[C@@H]1CC3 [4,4-dimethyl-^5α-cholesta-8,14,24-triene-^3β-ol] here?
**A.** 14.6±4.2%

**Q.** And the “% GVB (oocytes undergoing germinal vesicle breakdown per total oocytes per ovary), mean±sd” value ([3]; 60 μM with 0.2 mM IBMX)?
**A.** 66.9±7.4%

**Q.** And the effective dose ([3]; corresponds to the effective 30-60 μM in perfused rat ovaries)?
**A.** 12-24 mg/liter bood volume

**Q.** And the “DO, units of MIS activity” value ([1]; 0.03 μg/ml)?
**A.** 1.6 units of MIS activity

**Q.** And the “DO, units of MIS activity” value ([1]; 0.3 μg/ml)?
**A.** 0.6 units of MIS activity

**Q.** And the “CEO, units of MIS activity” value ([2]; 0.03 μg/ml)?
**A.** 0.5 units of MIS activity

**Q.** What about the “CEO, units of MIS activity” value ([2]; 0.3 μg/ml) of the same molecule?
**A.** 2.3 units of MIS activity
